Source: patent US20130225535A1, “SYNERGISTIC FUNGICIDAL COMPOSITION” (MAKHTESHIM CHEMICAL WORKS LTD., priority 2010, published 2013)

Columns and labels:
[1] = tested on: DMM-resistant isolates of Pseudoperonospora cubensis; assay: Control of DMM-resistant isolates of Pseudoperonospora cubensis on intact cucumber plants, ED90 and Wadley synergy; assay type: in vivo; details: for ED90 observed Trial 1: Trial 1, downy mildew lesions per leaf; for ED90 observed Trial 2: Trial 2, downy mildew lesions per leaf
Experimental: (§1) A synergistic effect exists whenever the action of an active ingredient combination is greater than the sum of the actions of the individual components. The Wadley Method is well-known method for determining whether synergy exists. In the Wadley Method, synergistic activity is determined from dose, response curves. With this method, the efficacy of the active ingredient (“a.i.”) is determined by comparing the degree of fungal attack on treated plants with that on untreated, similarly inoculated and incubated check plants. Each a.i. is generally tested at multiple (e.g., six) concentrations and dose response curves are generated. The dose response curves are used to establish the ED90 (i.e., estimated concentration required to produce 90% killing of fungi) of the individual compounds as well as of the combinations (ED90observed). The experimentally found values of the mixture at a given weight ratio are compared with the values that would have been found where only a complementary efficacy of the components was present (ED90 (A+B) expected). The ED90 (A+B) expected is generally calculated according to Wadley (Levi et al., EPPO-Bulletin 16, 1986, 651-657) or (Wadley, F. M., U.S. Dep. Agric., Agric. Res. Adm., Bur. Entomol. And Plant Quar. ET-223, 1945, 8) as follows:
(§2) wherein a and b are the weight ratios of the compounds A and B in the mixture and the indexes (A), (B) and (A+B) refer to the observed ED90values of the compounds A, B or the A+B mixture thereof. The ratio ED90 (A+B)expected/ED90 (A+B)observed expresses the level of the synergistic factor (SF).
A trial was conducted to estimate the synergistic interaction between three fungicides in controlling DMM-resistant isolates of P. cubensis, the causal agent of downy mildew in cucurbits.
Commercially available compositions of dimethomorph (Sphinx 50 SC), folpet (Folpan 80 WDG) and fosetyl-Al (Aliette 80 WDG), as well as 80 wt. %, WDG composition comprising a combination of dimethomorph, folpet and fosetyl-Al (mixed at a weight ratio of 1:5:10) were suspended in water, diluted to a series of concentrations in water, and sprayed initial run off.
Two isolates of P. cubensis were used. Intact, two-true leaf cucumber plants (n=2) were used for inoculation. Inoculation and incubation were conducted according to the description in example 1, except that sporangial concentration was adjusted to 2×103 sporangia/ml. Disease records were taken by counting the number of downy mildew lesions per leaf (n=4). Data analysis was done as described in Example 1.

Plasmopara viticola = assay: Control of Plasmopara viticola (downy mildew) on detached grapevine leaves, ED90 by Probit analysis, synergy by Wadley method; assay type: in vivo; details: detached grape leaves, spray before inoculation, 7-10 days after inoculation
Experimental: as §1, §2
A trial was conducted to in order to estimate the synergistic interaction between three fungicides in controlling the oomycete, Plasmopara viticola, the downy mildew causal agent, in grapevines.
Commercially available compositions of dimethomorph (Sphinx 50 SC), folpet (Folpan 80 WDG) and fosetyl-Al (Aliette 80 WDG), as well as 80 wt. %, WDG composition comprising a combination of dimethomorph, folpet and fosetyl-Al (mixed at a weight ratio of 1:5:10) were suspended in water, diluted to a series of concentrations in water and sprayed onto the lower leaf surface of detached grape leaves to initial run off.
Two cultivars of grapevines (Vitis vinifera) were used: Carinian and Merlo, both susceptible to P. viticola. Grafted Carinian plants were grown in pots in the greenhouse whereas Merlo vines were grown in the field. Plants were regularly sprayed with appropriate fungicides to protect them against powdery mildew (Uncinulla necator). In total, five experiments were conducted, three with Carinian and two with Merlo.
The 3rd and the 4th leaf from top of a branch were detached, sprayed on lower leaf surface with a fungicide, three leaves per fungicide per concentration per cultivar, and placed lower surface uppermost on moist filter paper in a plastic tray (70×50×5 cm). Normally, one tray served for one cultivar and one fungicide and contained 27 leaves (21 leaves treated with 7 doses of a fungicide+6 control untreated leaves).
Trays with the sprayed leaves were placed in a ventilated hood for about one hour until the spray droplets dried off and thereafter were inoculated with the pathogen.
An isolate of P. viticola was propagated on detached leaves of Carinian by repeated inoculations. Sporangia were harvested from freshly sporulating leaves into ice-cold distilled water, their concentration adjusted to 1×10^5 sporangia/ml. Sporangial suspension was sprayed onto the lower surface of the treated and control leaves laying in the trays. Trays were thereafter wrapped with cellophane bags, kept at 15° C. in the dark for 20 h and then at 20° C. under 14 h light photoperiod. At 7-10 days after inoculation, disease development was recorded by visual estimation of the leaf area occupied with sporophores and spores of P. viticola.
Mean sporulating leaf area was then calculated for each treatment (n=3, n for control=6). A mean value was calculated for all four controls in an experiment. […]

Compound	ED90 observed Trial 1 [1] [µg/mL]	ED90 observed Trial 2 [1] [µg/mL]	ED90 observed Trial 1 (Plasmopara viticola) [µg/mL]	ED90 observed Trial 2 (Plasmopara viticola) [µg/mL]	ED90 observed Trial 3 (Plasmopara viticola) [µg/mL]	ED90 observed Trial 4 (Plasmopara viticola) [µg/mL]	ED90 observed Trial 5 (Plasmopara viticola) [µg/mL]
COc1ccc(C(=CC(=O)N2CCOCC2)c2ccc(Cl)cc2)cc1OC [Dimethomorph, dimethomorph]	701	424	2.42	1.81	0.91	3.95	2.25
O=C1c2ccccc2C(=O)N1SC(Cl)(Cl)Cl [Folpet, folpet]	254	81	65.8	30.6	57.1	61.8	39.8
CCO[PH](=O)O [Fosetyl-Al, fosetyl-Al]	2088	508	936	1522	611	274	297
